Experimental data: patent US9895331B2, “Prophylactic and/or therapeutic agent for radiation damage” (The University of Tokyo, priority 2012, dated 2018)

Assays:
Assay type in all cases: in vivo, C57BL/6 mice
[1] = system: mouse suffering from radiation damage; assay: Radiation damage-alleviating effect of 5-ALA in irradiated mice (survival rate, body weight, appearance); settings: for body weight vs non-ALA administration group / body weight, p vs non-ALA administration group: eleven days after irradiation; for body weight vs non-ALA administration group / body weight, p vs non-ALA administration group / changes in appearance: total 8 Gy
Text: (§1) Male 8-week-old C57BL/6 mice were purchased from Japan SLC, Inc. and mice that appeared healthy by visual inspection on the day of arrival were subjected to the test. On the day after arrival, based on the body weight, the mice were divided into three groups of 10 mice per group by random sampling, and further, one group was divided into three, three, and four mice per cage. The mice were allowed to feed on the basic feed MF manufactured by Oriental Yeast Co., Ltd. and tap water ad libitum and reared in a rearing room at a room temperature of 23 to 24° C., a humidity of 30 to 40%, and under 12 hours of fluorescent lamp lighting.
The mice were divided into three groups of [1] to [3], each receiving a different drug, as shown below. Group; Non-5-ALA administration group (10 mice) Group; 5-ALA hydrochloride 10 mg/kg body weight administration group (10 mice) Group; 5-ALA hydrochloride 100 mg/kg body weight administration group (10 mice)
Using Pantac HF350 (200 KV, 20 mA Filter: Cu 0.1 mm+Al 0.5 mm), the mice were irradiated with 4 Gy of radiation twice at a 3-hour interval (a total of 8 Gy).
After initiation of irradiation, water was forcedly administered to the aforementioned group, and an aqueous solution of 5-ALA hydrochloride was forcedly administered to the aforementioned groups and [3] every day in the stomach through a feeding tube.
Setting the day of irradiation at day 0, survival up to day 21 was checked. A mouse that survived for 21 days was judged as alive. […] Also, when the death was confirmed in the morning hours, the death was judged to have occurred on the previous day.
At the time of confirmation of survival in (5) above, body weight was simultaneously measured.
During the measurement in (5) above, it was examined whether there was any change in appearance between the administration group and non-administration group.

[2] = system: mouse suffering from radiation damage; assay: Test for studying the establishment of an assessment model (body weight, blood cell count by flow cytometer; 3.5, 4.0, 4.5 Gy)
Text: as §1, with “10” for “three”, “four” for “10”, “each” for “further, one”, “kept in one” for “divided into three, three, and four mice per”
The mice were divided into 10 groups, including nine groups of 1) to 9), each receiving a different drug and exposed to a different radiation dose, and an untreated group, as shown below.
Groups 1) to 3); Three non-5-ALA administration groups, each irradiated with 3.5 Gy, 4.0 Gy, or 4.5 Gy
Groups 4) to 6); Three 5-ALA hydrochloride 100 mg/kg body weight administration groups, each irradiated with 3.5 Gy, 4.0 Gy, or 4.5 Gy
Groups 7) to 9); Three 5-ALA hydrochloride 100 mg+SFC 157 mg/kg body weight administration groups, each irradiated with 3.5 Gy, 4.0 Gy, or 4.5 Gy […]
Setting the day of irradiation at day 0, the body weight was measured two days before initiation of irradiation (day −2), and on day 0, day 3, day 5, and day 7.
The group of cells obtained from the bone marrow, spleen, and thymus were analyzed by a flow cytometer. […]
(§2) The results of analyzing the group of cells obtained from the bone marrow, spleen, and thymus by a flow cytometer are shown in FIG. 4. The number of bone marrow cells was counted as a sum of B cells, T cells, polymorphonuclear leukocytes (neutrophils), monocytes, and Ery I to IV. The number of thymocytes was counted as a sum of the number of CD4SP, CD8SP, DN, and DP. The number of spleen cells was counted as a sum of B cells, T cells, polymorphonuclear leukocytes (neutrophils), monocytes, and Ery I to IV.

[3] = system: mouse suffering from radiation damage; assay: Assessment test for hematopoiesis-promoting effect (body weight, blood cell count by flow cytometer; 4.0 Gy); settings: 5-ALA hydrochloride 100 mg/kg
Text: Male 8-week-old C57BL/6 mice were purchased from Japan SLC, Inc. and mice that appeared healthy by visual inspection on the day of arrival were subjected to the test. On the day after arrival, based on the body weight, the mice were divided into three groups of eight mice per group by random sampling, and further, one group was divided into four mice per cage. Also, as an untreated group, one group of four mice was kept in one cage. The mice were allowed to feed on the basic feed MF manufactured by Oriental Yeast Co., Ltd. and tap water ad libitum and reared in a rearing room at a room temperature of 23 to 24° C., a humidity of 30 to 40%, and under 12 hours of fluorescent lamp lighting.
The mice were divided into four groups, including three groups a) to c), each receiving a different drug, and an untreated group, as shown below.
Group a); Non-5-ALA administration group
Group b); 5-ALA hydrochloride 100 mg/kg body weight administration group
Group c); 5-ALA hydrochloride 100 mg+SFC 157 mg/kg body weight administration group
Using Pantac HF350 (200 KV, 20 mA Filter: Cu 0.1 mm+Al 0.5 mm), the mice were collectively irradiated with a radiation dose of 4.0 Gy on day 0.
From two days before initiation of irradiation (day −2) to day 6, water was forcedly administered to the aforementioned group a), an aqueous solution of 5-ALA hydrochloride was forcedly administered to the aforementioned group b), and an aqueous solution of 5-ALA hydrochloride and SFC was forcedly administered to the aforementioned group c) every day in the stomach through a feeding tube.
Setting the day of irradiation at day 0, the body weight was measured two days before initiation of irradiation (day −2), and on day 0, day 3, and day 6.
The group of cells obtained from the bone marrow, spleen, and thymus were analyzed by a flow cytometer. As an index for identifying each cell, the markers shown in the above [Table 2] were each used.
as §2, with “6.” for “4.”

**Q.** Which “survival rate, p (Logrank method) vs non-ALA administration group” value ([1]; 10 mg/kg, 4 Gy twice (total 8 Gy), up to day 21) does the source give for `NCC(=O)CCC(=O)O` [ALA, 5-aminolevulinic acid] here?
**A.** 0.161

**Q.** And the “body weight vs non-ALA administration group” value ([1]; 10 mg/kg)?
**A.** significant difference

**Q.** What about the “body weight, p vs non-ALA administration group” value ([1]; 10 mg/kg) of the same compound?
**A.** 0.03556

**Q.** What about the changes in appearance ([1]; 10 mg/kg, vs non-ALA group) of the same compound?
**A.** milder piloerection

**Q.** What about the survival rate ([1]; 100 mg/kg daily intragastric after irradiation, 4 Gy twice (total 8 Gy), up to day 21, vs non-ALA group) of the same compound?
**A.** significantly improved

**Q.** And the “survival rate, p (Logrank method) vs non-ALA administration group” value ([1]; 100 mg/kg, 4 Gy twice (total 8 Gy), up to day 21)?
**A.** 0.0289

**Q.** And the “body weight vs non-ALA administration group” value ([1]; 100 mg/kg)?
**A.** significant difference

**Q.** And the “body weight, p vs non-ALA administration group” value ([1]; 100 mg/kg)?
**A.** 0.03456

**Q.** And the changes in appearance ([1]; 100 mg/kg, vs non-ALA group)?
**A.** milder piloerection

**Q.** What about the “other items of blood cell count (bone marrow, thymus, spleen; other doses and groups)” value ([2]; 3.5 to 4.5 Gy, vs H2O control group) of the same compound?
**A.** no significant difference

**Q.** What about the “cell count in each organ (bone marrow, spleen, thymus)” value ([2]; 4.0 Gy, 5-ALA hydrochloride 100 mg/kg) of the same compound?
**A.** stable improvement tendency

**Q.** What about the spleen cell count ([2]; 4.0 Gy, 5-ALA hydrochloride 100 mg/kg, day -2 to day 6, vs H2O control group) of the same compound?
**A.** significant improvement

**Q.** What about the “number of B cells among the bone marrow cells” value ([3]; bone marrow) of the same compound?
**A.** tendency of improvement

**Q.** And the “number of bone marrow TER119+ erythroid progenitor cells” value ([3]; bone marrow)?
**A.** tendency of improvement

**Q.** What about the “number of monocytes among the bone marrow cells” value ([3]; bone marrow) of the same compound?
**A.** tendency of improvement

**Q.** And the “number of B cells among the spleen cells” value ([3]; spleen)?
**A.** statistically significant improvement

**Q.** And the “number of CD11b+ cells among the spleen cells” value ([3]; spleen)?
**A.** tendency of improvement

**Q.** And the “number of polymorphonuclear leukocytes among the spleen cells” value ([3]; spleen)?
**A.** tendency of improvement

**Q.** What about the “number of the erythroid progenitor cell Ery IV among the spleen cells” value ([3]; spleen) of the same compound?
**A.** improved with statistical significance

**Q.** What about the spleen cell count ([3]; without or with SFC 157 mg/kg, day -2 to day 6, vs H2O control group) of the same compound?
**A.** significant improvement

**Q.** And the “number of T cells among the spleen cells” value ([3]; without or with SFC 157 mg/kg, spleen)?
**A.** tendency of improvement
